Data published in patent publication US20160297830A1, “NOVEL COMPOUNDS USEFUL FOR THE TREATMENT OF BACTERIAL INFECTIOUS DISEASES” (GALAPAGOS NV, priority 2013, published 2016).
≈ marks a conversion by molar mass, not a printed value. Read-outs that look alike come from different tables or passages of the source.

How the values were obtained:
[1] = tested on: S. aureus Sa1 ATCC 13709; assay: microbe, parasite or virus in culture; assay type: cell-based; settings: for MIC: Staphylococcus aureus
[2] = tested on: S. aureus Sa26 ATCC 25923; assay: Antibacterial activity assay (MIC), S. aureus Sa26; assay type: cell-based; settings: for MIC: Staphylococcus aureus
[3] = tested on: S. aureus Sa4 NCTC 6571; assay: Antibacterial activity assay (MIC), S. aureus Sa4; assay type: cell-based; settings: for MIC: Staphylococcus aureus
[4] = tested on: S. aureus Sa2 clinical strain NCIMB 41953, MRSA; assay: microbe, parasite or virus in culture; assay type: cell-based; settings: for MIC Sa2: S. aureus Sa2 clinical strain, MRSA, Erythromycin Resistant, Fluoroquinolone resistant; for MIC: Staphylococcus aureus, read-out: MIC Sa2
[5] = tested on: H. influenza Hi47 clinical strain, Ampicillin Resistant; assay: organism not typed; assay type: cell-based; settings: for MIC Hi47: H. influenza Hi47 clinical strain, Ampicillin Resistant; for MIC: read-out: MIC Hi47
[6] = tested on: E. coli Ec1 ATCC 25922; assay: Antibacterial activity assay (MIC), E. coli Ec1; assay type: cell-based; settings: for MIC: Escherichia coli
[7] = tested on: E. coli Ec50 efflux pump KO; assay: microbe, parasite or virus in culture; assay type: cell-based; settings: for MIC Ec50 efflux pump KO: E. coli Ec50 efflux pump KO; for MIC: Escherichia coli, read-out: MIC Ec50 efflux pump KO
[8] = tested on: E. coli Ec113 efflux pump KO; assay: microbe, parasite or virus in culture; assay type: cell-based; settings: for MIC Ec113 efflux pump KO: E. coli Ec113 efflux pump KO; for MIC: Escherichia coli, read-out: MIC Ec113 efflux pump KO
[9] = molecular target: DNA Polymerase IIIα (DnaE) from Staphylococcus aureus (Staphylococcus aureus, UniProt Q6GG04); assay: biochemical
Chain of DNA Polymerase IIIα (DnaE) from Staphylococcus aureus (Q6GG04 1-1022): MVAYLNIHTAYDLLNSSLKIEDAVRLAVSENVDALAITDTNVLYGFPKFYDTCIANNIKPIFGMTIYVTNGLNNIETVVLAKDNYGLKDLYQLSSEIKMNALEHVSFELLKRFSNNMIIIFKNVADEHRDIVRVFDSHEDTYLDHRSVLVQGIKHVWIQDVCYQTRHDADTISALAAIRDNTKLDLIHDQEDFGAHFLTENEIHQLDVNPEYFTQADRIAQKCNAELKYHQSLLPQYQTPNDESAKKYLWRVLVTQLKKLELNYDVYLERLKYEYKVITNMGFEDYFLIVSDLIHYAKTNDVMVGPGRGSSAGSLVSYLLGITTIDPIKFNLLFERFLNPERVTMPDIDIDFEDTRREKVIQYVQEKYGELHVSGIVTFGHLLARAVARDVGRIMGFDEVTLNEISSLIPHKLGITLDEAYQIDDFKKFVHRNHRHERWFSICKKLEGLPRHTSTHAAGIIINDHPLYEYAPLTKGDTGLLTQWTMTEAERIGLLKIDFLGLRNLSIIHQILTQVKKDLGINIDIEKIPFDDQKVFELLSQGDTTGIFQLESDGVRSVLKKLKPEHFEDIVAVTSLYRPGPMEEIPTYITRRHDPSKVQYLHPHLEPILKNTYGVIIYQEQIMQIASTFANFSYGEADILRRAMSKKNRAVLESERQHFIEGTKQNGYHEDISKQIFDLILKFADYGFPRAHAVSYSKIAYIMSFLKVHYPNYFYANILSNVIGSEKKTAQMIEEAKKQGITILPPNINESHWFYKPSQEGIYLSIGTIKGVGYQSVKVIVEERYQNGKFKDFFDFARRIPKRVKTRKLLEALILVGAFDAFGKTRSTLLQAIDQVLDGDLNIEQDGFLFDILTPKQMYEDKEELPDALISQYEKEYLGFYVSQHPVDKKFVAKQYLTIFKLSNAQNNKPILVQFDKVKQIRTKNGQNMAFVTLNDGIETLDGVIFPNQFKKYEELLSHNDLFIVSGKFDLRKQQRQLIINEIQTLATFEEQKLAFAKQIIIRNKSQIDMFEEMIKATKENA

[10] = tested on: Methicillin Resistant S. aureus (MRSA); assay: Neutropenic mouse thigh infection model; settings: Thigh Sa
[11] = tested on: H. influenza Hi3 ATCC 31517; assay: organism not typed; assay type: cell-based; settings: read-out: MIC Hi3
[12] = tested on: H. influenza Hi10 clinical strain; assay: organism not typed; assay type: cell-based; settings: read-out: MIC Hi10
[13] = tested on: H. influenza Hi106 ATCC 51907; assay: organism not typed; assay type: cell-based; settings: read-out: MIC Hi106
[14] = S. aureus Sa1 ATCC 13709, sensitive strain, Mueller-Hinton Broth, 37° C.
[15] = S. aureus Sa26 ATCC 25923, sensitive strain, Mueller-Hinton Broth, 37° C.
[16] = S. aureus Sa4 NCTC 6571, sensitive strain
[17] = E. coli Ec1 ATCC 25922, sensitive strain
[18] = Study 1, 50 mg/kg SC BID, sample time 7 h PI
[19] = Study 2, 50 mg/kg SC BID, sample time 7 h PI
[20] = Study 3, 50 mg/kg SC BID, sample time 7 h PI
[21] = Study 4, 50 mg/kg SC BID, sample time 24 h PI
[22] = Study 5, 50 mg/kg SC BID, sample time 24 h PI
[23] = Study 6, 50 mg/kg SC BID, sample time 24 h PI
[24] = Study 7, 50 mg/kg SC BID, sample time 24 h PI
[25] = Study 8, 50 mg/kg SC QD, sample time 48 h PI
[26] = Study 9, 50 mg/kg SC BID, sample time 24 h PI

Row | Compound | MIC Sa1 [1, 14] | MIC Sa26 + 10% SH ([2]; S. aureus Sa26 + 10% SH) | MIC Sa26 + 50% SH ([2]; S. aureus Sa26 + 50% SH) | MIC Sa26 [2, 15] | MIC Sa4 [3, 16] | MIC Sa2 [4] | MIC Hi47 [5] | MIC Ec1 [6, 17] | MIC Ec50 efflux pump KO [7] | MIC Ec113 efflux pump KO [8] | MIC [4] | MIC [11] | MIC [12] | MIC [5] | MIC [13] | MIC [7] | MIC [8] | IC50 [9] | further results
1 | 8-O-4-Bromo-5-Chloro-1H-pyrrole-2′-carbonylbranimycin [Compound 35] | >64 µg/mL | >64 µg/mL | >64 µg/mL | >64 µg/mL | 64 µg/mL | 64 µg/mL | >64 µg/mL | >64 µg/mL | >64 µg/mL | 64 µg/mL | – | – | – | – | – | – | – | – | IC50 semiquantitative scoring, S. aureus [9]: ** (key: ***: 0.001-1 μg/mL; **: 1.0-10 μg/mL; *: >10 μg/mL)
2 | 8-O-5-Bromo-4-Chloro-1H-pyrrole-2′-carbonylbranimycin [Compound 33] | >64 µg/mL | >64 µg/mL | >64 µg/mL | >64 µg/mL | 64 µg/mL | 64 µg/mL | >64 µg/mL | >64 µg/mL | >64 µg/mL | 6 µg/mL | – | – | – | – | – | – | – | – | –
3 | O=C(O)c1cn(C2CC2)c2cc(N3CCNCC3)c(F)cc2c1=O [Ciprofloxacin] | – | – | – | – | – | – | – | – | – | – | – | – | – | – | – | – | – | – | Active [10, 18]: N; Log reduction vs. untreated [10, 18]: −1.27; Active [10, 19]: N; Log reduction vs. untreated [10, 19]: −1.07; Active [10, 20]: N; Log reduction vs. untreated [10, 20]: 0.22; Active [10, 21]: N; Log reduction vs. untreated [10, 21]: −0.05; Active [10, 22]: N; Log reduction vs. untreated [10, 22]: −0.27; Active [10, 23]: N; Log reduction vs. untreated [10, 23]: −0.26; Active [10, 24]: N; Log reduction vs. untreated [10, 24]: −0.08; Active [10, 25]: N; Log reduction vs. untreated [10, 25]: −0.39; Active [10, 26]: N; Log reduction vs. untreated [10, 26]: −1.28
4 | COC/C(=N\OC)[C@H]1OC(=O)[C@H](COC)[C@H]2C=C[C@H]3[C@H]4O[C@]2(/C(C)=C/[C@H]1C)[C@@H]3[C@H](O)[C@@H](COC)[C@H]4OC(=O)c1ccc[nH]1 [Compound 27, 18-Deoxy-18-methoximino-8-O-1H-pyrrole-2′-carbonylbranimycin] | – | – | – | – | – | – | – | – | – | – | 1 µg/mL (≈ 1.66 µM) | > 64 µg/mL | > 64 µg/mL | > 64 µg/mL | > 64 µg/mL | > 64 µg/mL | 4 µg/mL (≈ 6.64 µM) | 1.66 to 1660 nM | MIC ([1]; ATCC13709, read-out: MIC Sa1): 1 µg/mL (≈ 1.66 µM); MIC ([2]; ATCC25923, read-out: MIC Sa26): 1 µg/mL (≈ 1.66 µM); MIC ([2]; ATCC25923, read-out: MIC Sa26 + 10% SH): 2 µg/mL; MIC ([2]; ATCC25923, read-out: MIC Sa26 + 50% SH): 4 µg/mL; MIC ([3]; NCTC6571, read-out: MIC Sa4): 1 µg/mL (≈ 1.66 µM); MIC ([6]; ATCC25922, read-out: MIC Ec1): > 64 µg/mL
5 | COCC(=NOC(C)=O)[C@H]1OC(=O)[C@H](COC)[C@H]2C=C[C@H]3[C@H]4O[C@]2(/C(C)=C/[C@H]1C)[C@@H]3[C@H](O)[C@@H](COC)[C@H]4OC(=O)c1ccc[nH]1 [Compound 29, 18-Acetylimino-18-deoxy-8-O-1H-pyrrole-2′-carbonylbranimycin] | – | – | – | – | – | – | – | – | – | – | 0.5 µg/mL (≈ 0.793 µM) | > 64 µg/mL | > 64 µg/mL | 64 µg/mL (≈ 101 µM) | 64 µg/mL (≈ 101 µM) | 32 µg/mL (≈ 50.7 µM) | 0.5 µg/mL (≈ 0.793 µM) | 1.59 to 1590 nM | MIC ([1]; ATCC13709, S. aureus Sa1 ATCC 13709, sensitive strain, Mueller-Hinton Broth, 37° C., read-out: MIC Sa1): 0.5 µg/mL (≈ 0.793 µM); MIC ([2]; ATCC25923, read-out: MIC Sa26 + 10% SH, S. aureus Sa26 + 10% SH): 1 µg/mL; MIC ([2]; ATCC25923, read-out: MIC Sa26 + 50% SH, S. aureus Sa26 + 50% SH): 2 µg/mL; MIC ([2]; ATCC25923, S. aureus Sa26 ATCC 25923, sensitive strain, Mueller-Hinton Broth, 37° C., read-out: MIC Sa26): 1 µg/mL (≈ 1.59 µM); MIC ([3]; NCTC6571, S. aureus Sa4 NCTC 6571, sensitive strain, read-out: MIC Sa4): 0.5 µg/mL (≈ 0.793 µM); MIC ([6]; ATCC25922, E. coli Ec1 ATCC 25922, sensitive strain, read-out: MIC Ec1): > 64 µg/mL
